Assay results reported in PMC8041284, “Tunable Methacrylamides for Covalent Ligand Directed Release Chemistry” (Journal of the American Chemical Society, 2021).
Where two headings read alike, the source gives them in different places. Where a SMILES comes first, the peptide text is derived from it. [ ]: non-standard residue; d: D form. The star is where a group is joined. Dolaproine = CO[C@@H]([C@@H]1CCCN1)[C@@H](C)C(=O)O; Dil = CC[C@H](C)[C@H](NC)[C@@H](CC(=O)O)OC; X2 = C[C@@H](N*)[C@@H](O)c1ccccc1; NMeV = CN[C@H](C(=O)O)C(C)C

Biological target: BTK (Homo sapiens, UniProt Q06187)
Assay: biochemical
[1] = read-out: BTK inhibition (%), 0.75 uM BTK, […] probe 3l, 15 min preincubation

BTK, sequence (Q06187 402-655 limits assumed): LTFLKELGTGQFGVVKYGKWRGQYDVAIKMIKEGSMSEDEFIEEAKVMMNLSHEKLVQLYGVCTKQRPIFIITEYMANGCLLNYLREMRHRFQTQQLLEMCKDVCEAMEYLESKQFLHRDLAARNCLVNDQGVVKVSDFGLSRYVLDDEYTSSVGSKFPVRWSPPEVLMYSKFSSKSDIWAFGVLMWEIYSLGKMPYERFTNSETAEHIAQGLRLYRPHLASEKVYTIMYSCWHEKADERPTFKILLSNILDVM

Row | SMILES | inhibition at 10 µM [1] | inhibition at 10 µM (read-out: BTK inhibition (%))
1 | COc1cc(O)c(CC=C(C)C)c2c1C(=O)CC(c1ccc(O)cc1)O2 (centres unmarked) [PCM-0216367] | 8.5% | –
2 | COc1ccccc1OCC(O)CO (centres unmarked) [PCM-0086515] | -2.3% | –
3 | O=C1c2ccccc2-c2n[nH]c3cccc1c23 [PCM-0012406] | 18.6% | –
4 | CN(C)CCN(Cc1ccccc1)c1ccccn1 [PCM-0086274] | 12.8% | –
5 | O=S(=O)(NCCNC/C=C/c1ccc(Br)cc1)c1cccc2cnccc12 [PCM-0095146] | -22.8% | –
6 | CC(=O)O[C@@H]1C[C@@H]2CC[C@@]1(C)C2(C)C [PCM-0215932] | -21.4% | –
7 | CCN(CC)CCNC(=O)c1c(C)[nH]c(/C=C2\C(=O)Nc3ccc(-c4csc(-c5ccccc5)n4)cc32)c1C [PCM-0215844] | 29% | –
8 | CC(CNC(=O)c1cccnc1)NC(=O)c1cccnc1 (centres unmarked) [PCM-0214789] | -8.6% | –
9 | Cc1cc([N+](=O)[O-])ccc1NS(=O)(=O)c1cc(Cl)ccc1Cl [PCM-0215330] | 11.6% | –
10 | C[C@H](Nc1ncnc2nc[nH]c12)c1cc2cccc(Cl)c2c(=O)n1-c1ccccc1 [PCM-0095570] | 2.1% | –
11 | CCC(=O)O[C@]1(C(=O)CCl)[C@@H](C)C[C@H]2[C@@H]3CCC4=CC(=O)C=C[C@]4(C)[C@@]3(F)[C@@H](O)C[C@@]21C [PCM-0086533] | 3.4% | –
12 | CCCCc1nc(C)c(CC(=S)N(C)C)c(=O)n1Cc1ccc(-c2ccccc2-c2nn[nH]n2)cc1 [PCM-0215150] | -6.2% | –
13 | Cn1c(=O)c2[nH]cnc2n(C)c1=O [PCM-0064445] | -24.9% | –
14 | CCOC(=O)[C@H](CCc1ccccc1)N[C@@H](C)C(=O)N1C(=O)N(C)C[C@H]1C(=O)O [PCM-0214860] | 7% | –
15 | COc1ccc(-c2cc(=O)c3c(O)c(OC)c(O)c(OC)c3o2)cc1 [PCM-0214999] | 80.7% | –
16 | O=C(O[C@@H]1O[C@@H]2COC(=O)c3cc(O)c(O)c(O)c3-c3c(cc(O)c(O)c3O)C(=O)O[C@H]([C@H]1O)[C@@H]2O)c1cc(O)c(O)c(O)c1 [PCM-0216383] | 37.1% | –
17 | CCOC(=O)C1=C(C)NC(C)=C(C(=O)OCC)C1 [PCM-0216569] | 10.8% | –
18 | CCN1C[C@]2(OC(=O)c3ccccc3NC(C)=O)CC[C@H](OC)[C@@]34[C@@H]2C[C@@H]([C@@H]13)[C@@]1(O)C[C@H](OC)[C@H]2C[C@@H]4[C@]1(O)[C@H]2OC [PCM-0094835] | – | 21%
19 | CC(=O)Cc1cc(=O)c2c(C)cc(O)c([C@@H]3O[C@H](CO)[C@@H](O)[C@H](O)[C@H]3O)c2o1 [PCM-0216524] | 3.9% | –
20 | COCCCC/C(=N\OCCN)c1ccc(C(F)(F)F)cc1 [PCM-0065088] | -8.6% | –
21 | O=C(NO)c1cccc(C(=O)NCCc2ccccc2)c1 [PCM-0215456] | 10% | –
22 | CC[C@H]1OC(=O)[C@H](C)[C@@H](O[C@H]2C[C@@](C)(OC)[C@@H](O)[C@H](C)O2)[C@H](C)[C@@H](O[C@@H]2O[C@H](C)C[C@H](N(C)C)[C@H]2O)[C@](C)(OC)C[C@@H](C)C(=O)[C@H](C)[C@@H](O)[C@]1(C)O [PCM-0214635] | 9.3% | –
23 | COC(=O)[C@]12CCC(C)(C)C[C@H]1[C@H]1C(=O)C=C3[C@@]4(C)C=C(C#N)C(=O)C(C)(C)[C@@H]4CC[C@@]3(C)[C@]1(C)CC2 [PCM-0215239] | 16.6% | –
24 | Cc1cc(O)c(-c2ccc([C@@H](C)CN(C)C)cc2)c2c1[nH]c(=O)c1sccc12 [PCM-0215805] | 38.6% | –

Row | SMILES | inhibition at 10 µM [1] | inhibition at 10 µM (read-out: BTK inhibition (%))
25 | C[C@@H]1O[C@@H](O[C@H]2[C@H](O[C@H]3CC[C@@]4(C)[C@@H](CC[C@]5(C)[C@@H]4CC=C4[C@@H]6CC(C)(C)CC[C@]6(C(=O)O[C@@H]6O[C@H](CO[C@@H]7O[C@H](CO)[C@@H](O)[C@H](O)[C@H]7O)[C@@H](O)[C@H](O)[C@H]6O)CC[C@]45C)[C@]3(C)CO)OC[C@H](O)[C@@H]2O)[C@H](O)[C@H](O)[C@H]1O [PCM-0216342] | -25.5% | –
26 | O=C(O)CCc1ccc(O)cc1O [PCM-0214987] | -10.9% | –
27 | CC(C)c1nc(CN(C)C(=O)N[C@H](C(=O)N[C@@H](Cc2ccccc2)C[C@H](O)[C@H](Cc2ccccc2)NC(=O)OCc2cncs2)C(C)C)cs1 [PCM-0214603] | -19.5% | –
28 | COc1cccc(-c2c(C)n(Cc3c(F)cccc3C(F)(F)F)c(=O)n(C[C@H](NCCCC(=O)O)c3ccccc3)c2=O)c1F [PCM-0215104] | -7% | –
29 | CCCC(CCC)C(N)=O [PCM-0215111] | 19.3% | –
30 | CCOC(=O)c1cc(O)c(O)c(O)c1 [PCM-0216263] | 9.3% | –
31 | O=C(O)CCc1ccc(O)cc1 [PCM-0215016] | -17.9% | –
32 | CCCN(CCc1cccs1)[C@H]1CCc2c(O)cccc2C1 [PCM-0214799] | 14.8% | –
33 | COCCNCc1ccc(-c2cc3nccc(Oc4ccc(NC(=O)C5(C(=O)Nc6ccc(F)cc6)CC5)cc4F)c3s2)nc1 [PCM-0215838] | 81.4% | –
34 | C[C@@H]1CC(=O)NN=C1c1ccc(NN=C(C#N)C#N)cc1 [PCM-0090272] | 21.8% | –
35 | NCCCC[C@@H]1NC(=O)[C@@H](Cc2ccc(O)cc2)NC(=O)[C@H](CC(=O)O)NC(=O)CNC(=O)[C@H](CCCN=C(N)N)NC1=O [PCM-0215492] | -10% | –
36 | C[C@H]1Oc2cc(cnc2N)-c2c(nn(C)c2C#N)CN(C)C(=O)c2ccc(F)cc21 [PCM-0215394] | 17.9% | –
37 | COc1cc2c(cc1OC)-c1c(C)c3ccc(OC)c(OC)c3c[n+]1CC2 [PCM-0216326] | 0% | –
38 | O=C1C[C@@H](c2ccc(O)cc2)Oc2cc(O)cc(O)c21 [PCM-0094816] | 3.9% | –
39 | N#Cc1ccc(C(c2ccc(C#N)cc2)n2cncn2)cc1 [PCM-0086304] | -2.1% | –
40 | CSCC[C@H](N)C(=O)O [PCM-0216223] | -0.9% | –
41 | O=c1cccc2n1C[C@@H]1CNC[C@H]2C1 [PCM-0094836] | -10.1% | –
42 | CN1Cc2c(ccc3c2OCO3)[C@@]2(C)[C@@H](O)Cc3cc4c(cc3[C@@H]12)OCO4 [PCM-0216379] | -2.3% | –
43 | CC[C@H](C)[C@@H]([C@@H](CC(=O)N1CCC[C@H]1[C@H](OC)[C@@H](C)C(=O)N[C@H](C)[C@@H](O)c1ccccc1)OC)N(C)C(=O)[C@@H](NC(=O)[C@@H](NC)C(C)C)C(C)C [PCM-0215521] (H-[NMeV]V[Dil][Dolaproine]-X2) | – | -3.9%
44 | CC(c1cc2ccccc2s1)N(O)C(N)=O (centres unmarked) [PCM-0086421] | -0.7% | –
45 | Cc1cc(C)c(CNC(=O)c2cc(-c3ccc(CN4CCOCC4)cc3)cc3c2cnn3C2CCCC2)c(=O)[nH]1 [PCM-0215223] | -6.8% | –
46 | CC(/C=C1\SC(=S)N(CC(=O)O)C1=O)=C\c1ccccc1 [PCM-0095314] | -47.7% | –
47 | CNC(=O)c1ccc(N2C(=S)N(c3ccc(C#N)c(C(F)(F)F)c3)C(=O)C2(C)C)cc1F [PCM-0095003] | -10.3% | –
48 | NC(=O)Cc1cccc(C(=O)c2ccccc2)c1N [PCM-0095009] | 11.7% | –

Row | SMILES | inhibition at 10 µM [1] | inhibition at 10 µM (read-out: BTK inhibition (%))
49 | c1cc2c(c3c1CC1c4cc5c(cc4CCN1C3)OCO5)OCO2 (centres unmarked) [PCM-0216476] | -13.9% | –
50 | CCC1=C[C@@H]2CN3CCc4c([nH]c5ccccc45)[C@@](C(=O)OC)(C2)[C@@H]13 [PCM-0085818] | 8.6% | –
51 | C[C@H](N=C(NC#N)Nc1cccc2ncccc12)c1ccccc1 [PCM-0216092] | -13.1% | –
52 | O=C(O)[C@H]1O[C@@H](Oc2cc3oc(-c4ccccc4)cc(=O)c3c(O)c2O)[C@H](O)[C@@H](O)[C@@H]1O [PCM-0094823] | 14.8% | –
53 | C[C@@]12N[C@@H](Cc3ccccc31)c1ccccc12 [PCM-0086525] | – | -25.7%
54 | CCCCCCCC/C=C\CCCCCCCCCCCC(=O)O [PCM-0216153] | -64.9% | –
55 | NC(=O)c1cccc(-c2cc(Nc3ccc(OC(F)(F)F)cc3)ncn2)c1 [PCM-0095363] | -37.9% | –
56 | C=C1CCC[C@]2(C)Cc3occ(C)c3C[C@@H]12 [PCM-0216433] | 2.3% | –
57 | COc1ccc(C(=O)CC(=O)c2ccc(C(C)(C)C)cc2)cc1 [PCM-0090378] | -3.9% | –
58 | COC(=O)[C@H]1[C@H]2C[C@@H]3c4[nH]c5cc(OC)ccc5c4CCN3C[C@H]2C[C@@H](OC(=O)c2cc(OC)c(OC)c(OC)c2)[C@@H]1OC [PCM-0214638] | 35% | –
59 | CC(C)Cc1ccc([C@@H](C)C(=O)NS(C)(=O)=O)cc1 [PCM-0215882] | -24.8% | –
60 | COc1cc(C(=O)O)cc(OC)c1OC [PCM-0215032] | -21% | –
61 | CC(C)=CCC[C@](C)(O[C@@H]1O[C@H](CO)[C@@H](O)[C@H](O)[C@H]1O)[C@H]1CC[C@]2(C)[C@@H]1[C@H](O)C[C@@H]1[C@@]3(C)CC[C@H](O[C@@H]4O[C@H](CO)[C@@H](O)[C@H](O)[C@H]4O[C@@H]4O[C@H](CO)[C@@H](O)[C@H](O)[C@H]4O)C(C)(C)[C@@H]3CC[C@]12C [PCM-0215020] | 21% | –
62 | COc1cc2c3c(c1OC)-c1ccccc1C[C@H]3N(C)CC2 [PCM-0215922] | -12.8% | –
63 | Cc1cn([C@H]2C[C@H](N=[N+]=[N-])[C@@H](CO)O2)c(=O)[nH]c1=O [PCM-0085965] | -3.1% | –
64 | CC1=C[C@@H]2C(=O)[C@]3(C=C(C)[C@H](O)[C@@]3(O)[C@@H]1O)[C@H](C)C[C@@H]1[C@H]2C1(C)C [PCM-0216603] | – | 3.9%
65 | CCOc1cc2ncc(C#N)c(Nc3ccc(F)c(Cl)c3)c2cc1NC(=O)/C=C/CN(C)C [PCM-0095063] | 96.6% | –
66 | Clc1ccc(C2(c3ccc(-c4cn[nH]c4)cc3)CCNCC2)cc1 [PCM-0095120] | 6.9% | –
67 | COc1cc(-c2cc(-c3cccc(O)c3)cnc2N)cc(OC)c1OC [PCM-0095813] | 29.3% | –
68 | CC(C)c1cc(C(C)C)c(CC(=O)NS(=O)(=O)Oc2c(C(C)C)cccc2C(C)C)c(C(C)C)c1 [PCM-0095235] | 56% | –
69 | Nc1ccc(C(=O)Nc2cccc(-c3nc(N4CCOCC4)c4oc5ncccc5c4n3)c2)cn1 [PCM-0094950] | -4.8% | –
70 | C[C@H]1C[C@@H]2[C@H]([C@@H](O)C[C@@]3(C)[C@H]2CC[C@]3(O)C(=O)CO)[C@@]2(C)C=CC(=O)C=C12 [PCM-0085838] | 9% | –
71 | OCCOCCN1CCN(C2=Nc3ccccc3Sc3ccccc32)CC1 [PCM-0086113] | -4.7% | –
